Data from ChEMBL document CHEMBL1151668, “Molecular structure of terrecyclodiol: a derivative of the antifungal metabolite terrecyclic acid A from Aspergillus terreus” (1996).
Active and inactive are the calls of the source. The calls are words filed in the database; no cut-off is given here.

Experiments:
[1] = test system: P388; assay: Antitumor activity against mouse P388 cells; type: functional
[2] = test system: Phytophthora cinnamomi; assay: Growth inhibition of Phytophthora cinnamomi; type: functional, organism-based

## C=C1C(=O)C[C@@H]2[C@@H]3CC[C@@H](C(=O)O)[C@@]12CC3(C)C [TERRECYCLIC ACID A]
[1]
  Activity: <0.5 µg/mL
[2]
  Activity: Active
